System: Rh18 complex spheroid viability, percent test/control
Assay: Anticancer human tumor Rh18 cell line growth inhibition [Asc];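 note: spheroids exposed to compound for 7 days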;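 for viability, T/C: 100% = DMSO vehicle control wells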
Conditions: for IC50: curve of first compound; for viability, T/C: stronger effect = lower value
In short: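 Stromal components (HUVEC and hMSC) are co-assembled with the cancer cells into multicellular spheroids. Drugs are then added singly or paired, at concentrations falling by half-log increments from a clinically achievable maximum, capped at 10 microM without known Cmax.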

[1] = second compound 0.01 µM, first compound 0.00316 µM
[2] = second compound 0.01 µM, first compound 0.01 µM
[3] = second compound 0.01 µM, first compound 0.0316 µM
[4] = second compound 0.01 µM, first compound 0.1 µM
[5] = second compound 0.0316 µM, first compound 0.00316 µM
[6] = second compound 0.0316 µM, first compound 0.01 µM
[7] = second compound 0.0316 µM, first compound 0.0316 µM
[8] = second compound 0.0316 µM, first compound 0.1 µM
[9] = second compound 0.1 µM, first compound 0.00316 µM
[10] = second compound 0.1 µM, first compound 0.01 µM
[11] = second compound 0.1 µM, first compound 0.0316 µM
[12] = second compound 0.1 µM, first compound 0.1 µM
[13] = second compound 0.316 µM, first compound 0.00316 µM
[14] = second compound 0.316 µM, first compound 0.01 µM
[15] = second compound 0.316 µM, first compound 0.0316 µM
[16] = second compound 0.316 µM, first compound 0.1 µM
[17] = second compound 1 µM, first compound 0.00316 µM
[18] = second compound 1 µM, first compound 0.01 µM
[19] = second compound 1 µM, first compound 0.0316 µM
[20] = second compound 1 µM, first compound 0.1 µM

| SMILES | IC50 (second compound 0.01 µM) [nM] | IC50 (second compound 0.0316 µM) [nM] | IC50 (second compound 0.1 µM) [nM] | IC50 (second compound 0.316 µM) [nM] | IC50 (second compound 1 µM) [nM] | viability, T/C [1] [%] | viability, T/C [2] [%] | viability, T/C [3] [%] | viability, T/C [4] [%] | viability, T/C [5] [%] | viability, T/C [6] [%] | viability, T/C [7] [%] | viability, T/C [8] [%] | viability, T/C [9] [%] | viability, T/C [10] [%] | viability, T/C [11] [%] | viability, T/C [12] [%] | viability, T/C [13] [%] | viability, T/C [14] [%] | viability, T/C [15] [%] | other results |
| --- | --- | --- | --- | --- | --- | --- | --- | --- | --- | --- | --- | --- | --- | --- | --- | --- | --- | --- | --- | --- | --- |
| NC1CCC(NC2CC2c2ccccc2)CC1 (stereo not given) + CNC(C)C(=O)NC1CN(S(=O)(=O)c2cccc(S(=O)(=O)N3CCC4CCC(C(=O)NC(c5ccccc5)c5ccccc5)N4C(=O)C(NC(=O)C(C)NC)C3)c2)CCC2CCC(C(=O)NC(c3ccccc3)c3ccccc3)N2C1=O | > 100 | > 100 | < 0.316 | > 100 | < 0.316 | 72.5 | 66.5 | 65.1 | 61.5 | 53.5 | 61.5 | 53.1 | 53 | 48.7 | 55.5 | 52.3 | 56.1 | 52.6 | 53.1 | 53.6 | viability, T/C (second compound 0.01 µM, first compound 0.000316 µM): 53.7%; viability, T/C (second compound 0.01 µM, first compound 0.001 µM): 72.9%; viability, T/C (second compound 0.0316 µM, first compound 0.000316 µM): 53%; viability, T/C (second compound 0.0316 µM, first compound 0.001 µM): 53.9%; viability, T/C (second compound 0.1 µM, first compound 0.000316 µM): 48.1%; viability, T/C (second compound 0.1 µM, first compound 0.001 µM): 54.7%; viability, T/C (second compound 0.316 µM, first compound 0.000316 µM): 53.6%; viability, T/C (second compound 0.316 µM, first compound 0.001 µM): 54%; viability, T/C [16]: 59.4%; viability, T/C (second compound 1 µM, first compound 0.000316 µM): 43.8%; viability, T/C (second compound 1 µM, first compound 0.001 µM): 50.9%; viability, T/C [17]: 42.6%; viability, T/C [18]: 44.8%; viability, T/C [19]: 50.2%; viability, T/C [20]: 56% |
| CCN1CCN(Cc2ccc(Nc3ncc(F)c(-c4cc(F)c5nc(C)n(C(C)C)c5c4)n3)nc2)CC1 + CNC(C)C(=O)NC1CN(S(=O)(=O)c2cccc(S(=O)(=O)N3CCC4CCC(C(=O)NC(c5ccccc5)c5ccccc5)N4C(=O)C(NC(=O)C(C)NC)C3)c2)CCC2CCC(C(=O)NC(c3ccccc3)c3ccccc3)N2C1=O | < 3.16 | < 3.16 | < 3.16 | < 3.16 | < 3.16 | 57 | 50 | 39.2 | 40.6 | 47.7 | 46.1 | 39.6 | 38 | 47.1 | 47.5 | 35.2 | 40.1 | 59.2 | 47.2 | 38.3 | viability, T/C (second compound 0.01 µM, first compound 0.316 µM): 58.6%; viability, T/C (second compound 0.01 µM, first compound 1 µM): 86.7%; viability, T/C (second compound 0.0316 µM, first compound 0.316 µM): 48.7%; viability, T/C (second compound 0.0316 µM, first compound 1 µM): 90.9%; viability, T/C (second compound 0.1 µM, first compound 0.316 µM): 48.3%; viability, T/C (second compound 0.1 µM, first compound 1 µM): 53.8%; viability, T/C [16]: 35.7%; viability, T/C (second compound 0.316 µM, first compound 0.316 µM): 44.4%; viability, T/C (second compound 0.316 µM, first compound 1 µM): 67.4%; viability, T/C [17]: 34.7%; viability, T/C [18]: 30%; viability, T/C [19]: 30.6%; viability, T/C [20]: 29.5%; viability, T/C (second compound 1 µM, first compound 0.316 µM): 38.7%; viability, T/C (second compound 1 µM, first compound 1 µM): 60.7% |
